Where “and” joins values, the source holds several entries; their conditions need not be identical. Identical values can stand only once.
How the values were obtained:
Assay type in all cases: in vivo, Wistar rats
[1] = test system: Rats overdosed with ethanol (experimental model for human ALD); assay: Liver markers MDA, GSH and TG in ethanol-fed rats (ALD model); conditions: for GSH / MDA / TG: rat liver, ethanol 30 days
Procedure: (§1) 6-week old male rats (Wistar rats) were stabilized and then divided into 5 groups with 10 rats per group (n=10). Rats overdosed with ethanol were used as an experimental model for human ALD. Four groups of rats were fed with ethanol at a dose of 6000 mg/kg BW (50% ethanol at 12 ml/kg BW) per day for 30 days. These four groups were divided into positive control, theaflavin (low), theaflavin (mid), and theaflavin (high). Theaflavin (capsule, Xiayie) was also fed to rat at a dose of 83 mg/kg BW (low), 250 mg/kg (mid), and 500 mg/kg (high). In addition, Fifth group was fed with water as a negative control. Animals were sacrificed after the 30-day study and livers were collected for further analyses.
Three liver markers, i.e., malondialdehyde (MDA, a marker of oxidative stress), glutathione (GSH), and triglyceride (TG) were measured.

[2] = Body weight, liver weight and liver/body ratio in ethanol-fed rats (ALD model); conditions: ethanol 6000 mg/kg BW per day; for Liver Weight / Liver body ratio: 30 days; for BW (ending): end of 30-day study
Procedure: as §1

[3] = test system: Rats overdosed with ethanol (experimental model for human ALD); assay: Liver histopathology (liver cell fat rating, fat color rating) in ethanol-fed rats (ALD model); set-up: Liver cell fat rating / Liver cell fat rating, sum / Fat color rating: scale not given here; conditions: for Fat color rating: n=10; for Liver cell fat rating: individual animals (ID 1-10); for Liver cell fat rating, sum: sum of 10 animals
Procedure: as §1

Structure (SMILES): O=c1c(O)cc([C@H]2Oc3cc(O)cc(O)c3C[C@H]2O)cc2c([C@H]3Oc4cc(O)cc(O)c4C[C@H]3O)cc(O)c(O)c12 [Theaflavin, theaflavin]
- GSH ([1]; 83 mg/kg BW theaflavin): 13.86 ± 1.80 mg/g
- MDA ([1]; 83 mg/kg BW theaflavin): 1.32 ± 0.13 nmol/mg
- TG ([1]; 83 mg/kg BW theaflavin): 0.62 ± 0.21 mmol/L
- GSH ([1]; 250 mg/kg BW theaflavin): 13.91 ± 1.66 mg/g
- MDA ([1]; 250 mg/kg BW theaflavin): 1.24 ± 0.49 nmol/mg
- TG ([1]; 250 mg/kg BW theaflavin): 0.65 ± 0.14 mmol/L
- GSH ([1]; 500 mg/kg BW theaflavin): 14.43 ± 0.69 mg/g
- MDA ([1]; 500 mg/kg BW theaflavin): 1.23 ± 0.08 nmol/mg
- TG ([1]; 500 mg/kg BW theaflavin): 0.64 ± 0.13 mmol/L
- MDA when compared to positive controls ([1]; theaflavin (high) 500 mg/kg): lower
- TG when compared to positive controls ([1]; theaflavin (high) 500 mg/kg): lower
- MDA when compared to positive controls ([1]; theaflavin (mid) 250 mg/kg): lower
- TG when compared to positive controls ([1]; theaflavin (mid) 250 mg/kg): lower
- Liver Weight ([2]; 83 mg/kg BW theaflavin): 9.19 ± 0.88 g
- Liver body ratio ([2]; 83 mg/kg BW theaflavin): 2.79 ± 0.22%
- BW (ending) ([2]; 83 mg/kg BW theaflavin): 329.1 ± 19.17 g
- BW (intermediate) ([2]; 83 mg/kg BW theaflavin): 256.1 ± 21.23 g
- Liver Weight ([2]; 250 mg/kg BW theaflavin): 9.83 ± 1.12 g
- Liver body ratio ([2]; 250 mg/kg BW theaflavin): 2.86 ± 0.23%
- BW (ending) ([2]; 250 mg/kg BW theaflavin): 342.9 ± 21.99 g
- BW (intermediate) ([2]; 250 mg/kg BW theaflavin): 266.3 ± 17.10 g
- Liver Weight ([2]; 500 mg/kg BW theaflavin): 10.34 ± 1.32 g
- Liver body ratio ([2]; 500 mg/kg BW theaflavin): 2.84 ± 0.27%
- BW (ending) ([2]; 500 mg/kg BW theaflavin): 365.2 ± 44.39 g
- BW (intermediate) ([2]; 500 mg/kg BW theaflavin): 272.3 ± 17.27 g
- Fat color rating ([3]; 83 mg/kg BW theaflavin): 1.60 ± 0.70
- Fat color rating ([3]; 250 mg/kg BW theaflavin): 1.40 ± 0.70
- Fat color rating ([3]; 500 mg/kg BW theaflavin): 1.30 ± 0.82
- Liver cell fat rating ([3]; theaflavin (high) 500 mg/kg, 500 mg/kg): 1 (6×) and 0 and 3 and 2 (2×)
- Liver cell fat rating ([3]; theaflavin (low) 83 mg/kg BW, 83 mg/kg): 1 (5×) and 3 and 2 (4×)
- Liver cell fat rating ([3]; theaflavin (mid) 250 mg/kg, 250 mg/kg): 1 (4×) and 0 and 2 (5×)
- Liver cell fat rating, sum ([3]; theaflavin (high) 500 mg/kg): 13
- Liver cell fat rating, sum ([3]; theaflavin (low) 83 mg/kg BW): 16
- Liver cell fat rating, sum ([3]; theaflavin (mid) 250 mg/kg): 14
- Fat color rating compared to positive control ([3]; theaflavin (high) 500 mg/kg): different readings
- Liver cell fat rating compared to positive control ([3]; theaflavin (high) 500 mg/kg): different readings
- Fat color rating compared to positive control ([3]; theaflavin (mid) 250 mg/kg): different readings
- Liver cell fat rating compared to positive control ([3]; theaflavin (mid) 250 mg/kg): different readings

Reference: patent US20150094364A1, “METHOD OF USING THEAFLAVIN” (priority 2013, published 2015)
